# Reference: patent US20230257396A1, “MACROCYCLES AND THEIR USE” (BLOSSOMHILL THERAPEUTICS, INC., priority 2020, published 2023)
# What was measured:
# Assay in all cases: KINOMEscan kinase binding assay (Eurofins/DiscoveRx), % Ctrl
# Conditions in all cases: 1 μM
# kinases [1] = molecular target: T1, kinases (Homo sapiens, UniProt P00533, G719S)
# T1 construct: purchased Eurofins/DiscoveRx; host or cells: E. coli BL21-derived host (T7 phage display) for most kinases; HEK-293 for the rest
# Summary of the method: (§1)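 Competition binding: DNA- or phage-tagged kinases (T7 phage in E. coli BL21, or HEK-293-expressed) with immobilized biotinylated ligand beads and test compound, 1 h at room temperature. Bead-bound kinase eluted and quantified by qPCR; % Ctrl = (compound − positive control)/(negative control − positive control) ×100 at a single compound concentration.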
# kinases [2] = molecular target: T2, kinases (Homo sapiens, UniProt P07949)
# T2 construct: purchased Eurofins/DiscoveRx; host or cells: E. coli BL21-derived host (T7 phage display) for most kinases; HEK-293 for the rest
# Summary of the method: as §1
# kinases [3] = molecular target: T3, kinases (Homo sapiens, UniProt P10721, D816H)
# T3 construct: purchased Eurofins/DiscoveRx; host or cells: E. coli BL21-derived host (T7 phage display) for most kinases; HEK-293 for the rest
# Summary of the method: as §1
# kinases [4] = molecular target: T4, kinases (Homo sapiens, UniProt P00519, E255K)
# T4 construct: purchased Eurofins/DiscoveRx; host or cells: E. coli BL21-derived host (T7 phage display) for most kinases; HEK-293 for the rest
# Summary of the method: as §1
# kinases [5] = molecular target: T5, kinases (Homo sapiens, UniProt P42684)
# T5 construct: purchased Eurofins/DiscoveRx; host or cells: E. coli BL21-derived host (T7 phage display) for most kinases; HEK-293 for the rest
# Summary of the method: as §1
# kinases [6] = molecular target: T6, kinases (Homo sapiens, UniProt P00533)
# T6 construct: purchased Eurofins/DiscoveRx; host or cells: E. coli BL21-derived host (T7 phage display) for most kinases; HEK-293 for the rest
# Summary of the method: as §1
# kinases [7] = molecular target: T7, kinases (Homo sapiens, UniProt P10721, L576P)
# T7 construct: purchased Eurofins/DiscoveRx; host or cells: E. coli BL21-derived host (T7 phage display) for most kinases; HEK-293 for the rest
# Summary of the method: as §1
# kinases [8] = molecular target: T8, kinases (Homo sapiens, UniProt P00519, Q252H)
# T8 construct: purchased Eurofins/DiscoveRx; host or cells: E. coli BL21-derived host (T7 phage display) for most kinases; HEK-293 for the rest
# Summary of the method: as §1
# kinases [9] = molecular target: T9, kinases (Homo sapiens, UniProt P36888, D835V)
# T9 construct: purchased Eurofins/DiscoveRx; host or cells: E. coli BL21-derived host (T7 phage display) for most kinases; HEK-293 for the rest
# T9 sequence (P36888 27-993 D835V): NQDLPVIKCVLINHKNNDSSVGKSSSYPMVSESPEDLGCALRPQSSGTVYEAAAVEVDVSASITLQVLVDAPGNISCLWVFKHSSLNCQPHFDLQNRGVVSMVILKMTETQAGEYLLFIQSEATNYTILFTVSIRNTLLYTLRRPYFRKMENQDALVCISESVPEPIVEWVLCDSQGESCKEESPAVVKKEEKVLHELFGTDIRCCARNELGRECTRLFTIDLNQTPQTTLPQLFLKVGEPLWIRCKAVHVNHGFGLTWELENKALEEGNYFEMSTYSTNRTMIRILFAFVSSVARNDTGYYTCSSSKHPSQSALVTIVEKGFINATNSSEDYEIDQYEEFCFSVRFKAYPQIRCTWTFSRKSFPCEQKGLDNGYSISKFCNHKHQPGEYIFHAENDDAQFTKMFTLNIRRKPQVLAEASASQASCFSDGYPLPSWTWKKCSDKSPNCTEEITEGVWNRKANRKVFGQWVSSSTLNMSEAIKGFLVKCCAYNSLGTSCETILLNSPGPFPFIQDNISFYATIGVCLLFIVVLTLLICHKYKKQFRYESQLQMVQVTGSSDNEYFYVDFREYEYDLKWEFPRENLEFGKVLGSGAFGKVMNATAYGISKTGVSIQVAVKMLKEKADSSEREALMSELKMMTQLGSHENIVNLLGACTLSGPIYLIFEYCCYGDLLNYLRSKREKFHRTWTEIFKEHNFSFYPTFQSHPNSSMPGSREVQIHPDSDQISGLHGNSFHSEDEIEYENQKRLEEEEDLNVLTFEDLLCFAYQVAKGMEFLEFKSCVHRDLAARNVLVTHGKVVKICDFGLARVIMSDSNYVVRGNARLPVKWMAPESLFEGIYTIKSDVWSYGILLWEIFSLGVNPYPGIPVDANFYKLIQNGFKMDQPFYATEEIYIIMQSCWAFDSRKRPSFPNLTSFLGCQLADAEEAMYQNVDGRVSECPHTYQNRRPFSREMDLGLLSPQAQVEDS
# Summary of the method: as §1
# kinases [10] = molecular target: T10, kinases (Homo sapiens, UniProt P00519, Y253F)
# T10 construct: purchased Eurofins/DiscoveRx; host or cells: E. coli BL21-derived host (T7 phage display) for most kinases; HEK-293 for the rest
# Summary of the method: as §1
# kinases [11] = molecular target: T11, kinases (Homo sapiens, UniProt P00519, H396P)
# T11 construct: purchased Eurofins/DiscoveRx; host or cells: E. coli BL21-derived host (T7 phage display) for most kinases; HEK-293 for the rest
# Summary of the method: as §1
# kinases [12] = molecular target: T12, kinases (Homo sapiens, UniProt P00533, L861Q)
# T12 construct: purchased Eurofins/DiscoveRx; host or cells: E. coli BL21-derived host (T7 phage display) for most kinases; HEK-293 for the rest
# Summary of the method: as §1
# kinases [13] = molecular target: T13, kinases (Homo sapiens, UniProt P00533, T790M)
# T13 construct: purchased Eurofins/DiscoveRx; host or cells: E. coli BL21-derived host (T7 phage display) for most kinases; HEK-293 for the rest
# Summary of the method: as §1
# kinases [14] = molecular target: T14, kinases (Homo sapiens, UniProt P07949, V804L)
# T14 construct: purchased Eurofins/DiscoveRx; host or cells: E. coli BL21-derived host (T7 phage display) for most kinases; HEK-293 for the rest
# Summary of the method: as §1
# kinases [15] = molecular target: T15, kinases (Homo sapiens, UniProt P00519, M351T)
# T15 construct: purchased Eurofins/DiscoveRx; host or cells: E. coli BL21-derived host (T7 phage display) for most kinases; HEK-293 for the rest
# Summary of the method: as §1
# T2 sequence (P07949 29-1114): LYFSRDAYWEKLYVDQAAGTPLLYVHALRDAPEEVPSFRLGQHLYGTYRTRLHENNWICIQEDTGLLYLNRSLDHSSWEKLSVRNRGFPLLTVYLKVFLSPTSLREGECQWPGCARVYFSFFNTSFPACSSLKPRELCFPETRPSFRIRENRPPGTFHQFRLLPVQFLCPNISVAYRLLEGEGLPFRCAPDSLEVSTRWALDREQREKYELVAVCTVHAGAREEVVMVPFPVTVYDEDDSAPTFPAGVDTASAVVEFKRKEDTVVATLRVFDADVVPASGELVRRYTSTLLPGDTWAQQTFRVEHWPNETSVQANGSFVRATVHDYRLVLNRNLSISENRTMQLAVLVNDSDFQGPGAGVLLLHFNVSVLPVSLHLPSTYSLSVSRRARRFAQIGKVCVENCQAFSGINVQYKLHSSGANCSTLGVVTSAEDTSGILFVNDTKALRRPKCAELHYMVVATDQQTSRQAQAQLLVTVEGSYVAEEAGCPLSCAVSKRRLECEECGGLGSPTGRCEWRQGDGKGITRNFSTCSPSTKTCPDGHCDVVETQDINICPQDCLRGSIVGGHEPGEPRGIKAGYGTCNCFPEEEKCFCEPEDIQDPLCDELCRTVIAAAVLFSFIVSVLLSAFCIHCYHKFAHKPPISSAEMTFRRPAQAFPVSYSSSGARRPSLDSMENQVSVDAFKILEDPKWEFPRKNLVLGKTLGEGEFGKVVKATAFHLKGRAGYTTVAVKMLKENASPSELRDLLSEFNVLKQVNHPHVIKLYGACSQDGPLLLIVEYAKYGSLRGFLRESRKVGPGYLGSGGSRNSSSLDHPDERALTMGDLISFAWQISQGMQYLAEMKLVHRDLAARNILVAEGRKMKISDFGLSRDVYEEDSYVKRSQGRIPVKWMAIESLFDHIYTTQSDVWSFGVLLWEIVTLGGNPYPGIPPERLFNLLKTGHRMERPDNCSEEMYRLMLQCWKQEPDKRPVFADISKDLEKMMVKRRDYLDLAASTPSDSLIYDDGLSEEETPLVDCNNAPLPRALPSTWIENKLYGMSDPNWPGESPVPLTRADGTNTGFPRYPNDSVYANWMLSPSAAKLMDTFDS
# T5 sequence (P42684 whole entry): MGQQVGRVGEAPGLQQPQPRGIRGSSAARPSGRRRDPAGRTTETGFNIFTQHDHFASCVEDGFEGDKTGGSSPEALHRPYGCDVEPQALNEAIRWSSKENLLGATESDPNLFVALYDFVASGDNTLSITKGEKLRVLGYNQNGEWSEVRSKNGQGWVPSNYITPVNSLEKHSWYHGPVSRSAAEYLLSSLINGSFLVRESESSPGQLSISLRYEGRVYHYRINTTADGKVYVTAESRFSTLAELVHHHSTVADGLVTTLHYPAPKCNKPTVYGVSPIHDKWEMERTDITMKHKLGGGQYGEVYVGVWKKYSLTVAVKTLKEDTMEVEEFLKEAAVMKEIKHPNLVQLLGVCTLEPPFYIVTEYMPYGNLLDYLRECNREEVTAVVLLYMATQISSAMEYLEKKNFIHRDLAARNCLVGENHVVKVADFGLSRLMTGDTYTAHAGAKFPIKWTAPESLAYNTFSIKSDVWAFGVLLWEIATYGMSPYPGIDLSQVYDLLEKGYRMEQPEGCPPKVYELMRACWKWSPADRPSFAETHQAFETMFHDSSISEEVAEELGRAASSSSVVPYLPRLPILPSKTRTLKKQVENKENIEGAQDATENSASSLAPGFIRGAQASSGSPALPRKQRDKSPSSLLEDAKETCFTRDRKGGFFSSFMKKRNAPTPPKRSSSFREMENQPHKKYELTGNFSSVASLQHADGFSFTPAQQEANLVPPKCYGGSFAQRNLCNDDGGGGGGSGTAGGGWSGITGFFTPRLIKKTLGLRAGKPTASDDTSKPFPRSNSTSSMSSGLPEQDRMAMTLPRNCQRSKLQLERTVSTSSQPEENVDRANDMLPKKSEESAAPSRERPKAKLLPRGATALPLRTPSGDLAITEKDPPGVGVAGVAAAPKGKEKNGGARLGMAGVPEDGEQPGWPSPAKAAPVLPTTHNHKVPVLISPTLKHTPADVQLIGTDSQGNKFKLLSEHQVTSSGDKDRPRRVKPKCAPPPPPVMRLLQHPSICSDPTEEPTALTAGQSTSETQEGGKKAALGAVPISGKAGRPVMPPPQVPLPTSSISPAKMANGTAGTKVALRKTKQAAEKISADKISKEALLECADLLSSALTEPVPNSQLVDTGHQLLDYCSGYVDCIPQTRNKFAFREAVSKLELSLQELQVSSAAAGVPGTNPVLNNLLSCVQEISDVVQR
# T3 sequence (P10721 26-976 D816H): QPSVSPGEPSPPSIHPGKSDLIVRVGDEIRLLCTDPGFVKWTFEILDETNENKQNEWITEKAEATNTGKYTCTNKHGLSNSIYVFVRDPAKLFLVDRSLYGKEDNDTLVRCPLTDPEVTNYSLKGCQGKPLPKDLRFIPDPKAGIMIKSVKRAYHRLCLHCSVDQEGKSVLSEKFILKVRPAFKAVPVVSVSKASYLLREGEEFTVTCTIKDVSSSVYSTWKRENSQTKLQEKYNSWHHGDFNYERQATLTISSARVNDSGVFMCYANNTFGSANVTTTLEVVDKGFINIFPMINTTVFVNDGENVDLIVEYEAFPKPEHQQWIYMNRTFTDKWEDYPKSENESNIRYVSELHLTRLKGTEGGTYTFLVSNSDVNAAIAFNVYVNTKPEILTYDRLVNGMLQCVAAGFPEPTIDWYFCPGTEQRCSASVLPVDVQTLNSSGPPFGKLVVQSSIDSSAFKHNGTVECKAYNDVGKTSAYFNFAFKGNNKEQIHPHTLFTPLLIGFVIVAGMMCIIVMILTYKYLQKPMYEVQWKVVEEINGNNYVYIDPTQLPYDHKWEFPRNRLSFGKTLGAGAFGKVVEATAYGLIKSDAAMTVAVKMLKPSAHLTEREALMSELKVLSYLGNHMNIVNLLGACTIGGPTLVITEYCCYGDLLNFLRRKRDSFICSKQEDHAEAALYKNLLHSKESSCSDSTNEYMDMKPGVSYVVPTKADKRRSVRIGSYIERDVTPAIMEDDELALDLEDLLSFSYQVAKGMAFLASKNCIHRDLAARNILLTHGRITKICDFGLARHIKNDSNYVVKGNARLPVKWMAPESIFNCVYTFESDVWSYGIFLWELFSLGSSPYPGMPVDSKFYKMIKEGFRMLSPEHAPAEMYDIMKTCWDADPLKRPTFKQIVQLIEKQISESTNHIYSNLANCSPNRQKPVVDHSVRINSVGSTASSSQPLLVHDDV
# T7 sequence (P10721 26-976 L576P): as the sequence (P10721 26-976 D816H) above, with L551P, H791D counted along it
# T14 sequence (P07949 29-1114 V804L): as the sequence (P07949 29-1114) above, with V776L counted along it
SMILES,"% Ctrl, EGFR(G719S) (kinases [1]; EGFR(G719S)) [% Ctrl]","% Ctrl, RET (kinases [2]; RET) [% Ctrl]","% Ctrl, KIT(D816H) (kinases [3]; KIT(D816H)) [% Ctrl]","% Ctrl, ABL1(E255K)-phosphorylated (kinases [4]; ABL1(E255K)-phosphorylated) [% Ctrl]","% Ctrl, ABL2 (kinases [5]; ABL2) [% Ctrl]","% Ctrl, EGFR (kinases [6]; EGFR) [% Ctrl]","% Ctrl, KIT(L576P) (kinases [7]; KIT(L576P)) [% Ctrl]","% Ctrl, ABL1(Q252H)-nonphosphorylated (kinases [8]; ABL1(Q252H)-nonphosphorylated) [% Ctrl]","% Ctrl, ABL1(Q252H)-phosphorylated (kinases [8]; ABL1(Q252H)-phosphorylated) [% Ctrl]","% Ctrl, FLT3(D835V) (kinases [9]; FLT3(D835V)) [% Ctrl]","% Ctrl, ABL1(Y253F)-phosphorylated (kinases [10]; ABL1(Y253F)-phosphorylated) [% Ctrl]","% Ctrl, ABL1(H396P)-nonphosphorylated (kinases [11]; ABL1(H396P)-nonphosphorylated) [% Ctrl]","% Ctrl, ABL1(H396P)-phosphorylated (kinases [11]; ABL1(H396P)-phosphorylated) [% Ctrl]","% Ctrl, EGFR(L861Q) (kinases [12]; EGFR(L861Q)) [% Ctrl]","% Ctrl, EGFR(T790M) (kinases [13]; EGFR(T790M)) [% Ctrl]","% Ctrl, RET(V804L) (kinases [14]; RET(V804L)) [% Ctrl]","% Ctrl, ABL1(M351T)-phosphorylated (kinases [15]; ABL1(M351T)-phosphorylated) [% Ctrl]",further results
"Cc1cc2c([nH]1)/C=C1\C(=O)Nc3cc(Cl)c(cc31)OCCO[C@@H](C(=O)N1CCN(C)CC1)CN(C)C2=O [Ex. 138, [7R,16a(17)Z]-19-chloro-2,5-dimethyl-7-(4-methylpipearazine-1-carbonyl)-6,7,9,10-tetrahydro-1H-12,14-(ethanediylidene)dipyrrolo[3,2-i:3′,4′-l][1,4,7]dioxazacyclopentadecine-4,16(5H,15H)-dione]",,,,,,,,,,,,,,,,,,"% Ctrl, EGFR(G719S) (kinases [1]; target EGFR(G719S)): 95 % Ctrl; % Ctrl, RET (kinases [2]; target RET): 63 % Ctrl; % Ctrl, KIT(D816H) (kinases [3]; target KIT(D816H)): 82 % Ctrl; % Ctrl, ABL1(E255K)-phosphorylated (kinases [4]; target ABL1(E255K)-phosphorylated): 61 % Ctrl; % Ctrl, ABL2 (kinases [5]; target ABL2): 98 % Ctrl; % Ctrl, EGFR (kinases [6]; target EGFR): 76 % Ctrl; % Ctrl, KIT(L576P) (kinases [7]; target KIT(L576P)): 69 % Ctrl; % Ctrl, ABL1(Q252H)-nonphosphorylated (kinases [8]; target ABL1(Q252H)-nonphosphorylated): 100 % Ctrl; % Ctrl, ABL1(Q252H)-phosphorylated (kinases [8]; target ABL1(Q252H)-phosphorylated): 98 % Ctrl; % Ctrl, FLT3(D835V) (kinases [9]; target FLT3(D835V)): 18 % Ctrl; % Ctrl, ABL1(Y253F)-phosphorylated (kinases [10]; target ABL1(Y253F)-phosphorylated): 91 % Ctrl; % Ctrl, ABL1(H396P)-nonphosphorylated (kinases [11]; target ABL1(H396P)-nonphosphorylated): 69 % Ctrl; % Ctrl, ABL1(H396P)-phosphorylated (kinases [11]; target ABL1(H396P)-phosphorylated): 82 % Ctrl; % Ctrl, EGFR(L861Q) (kinases [12]; target EGFR(L861Q)): 100 % Ctrl; % Ctrl, EGFR(T790M) (kinases [13]; target EGFR(T790M)): 94 % Ctrl; % Ctrl, RET(V804L) (kinases [14]; target RET(V804L)): 83 % Ctrl; % Ctrl, ABL1(M351T)-phosphorylated (kinases [15]; target ABL1(M351T)-phosphorylated): 71 % Ctrl"
"Cc1cc2c([nH]1)/C=C1\C(=O)Nc3cc(Cl)c(cc31)OCCO[C@@H](C(=O)N(C)C)CN(C)C2=O [Ex. 137, [7R,16a(17)Z]-19-chloro-N,N,2,5-tetramethyl-4,16-dioxo-4,5,6,7,9,10,15,16-octahydro-1H-12,14-(ethanediylidene)dipyrrolo[3,2-i:3′,4′-l][1,4,7]dioxazacyclopentadecine-7-carboxamide]",98,8,74,64,99,100,39,48,51,8.5,60,38,65,100,94,37,51,
"Cc1cc2c([nH]1)/C=C1\C(=O)Nc3ccc(cc31)-c1ccnn1CCOCCN(C)C2=O [Ex. 41, [19a(20)Z]-2,5-dimethyl-6,7,9,10-tetrahydro-1H-15,17-(ethanediylidene)pyrazolo[1,5-d]dipyrrolo[3,4-h:2′,3′-k][1,4,14]oxadiazacyclohexadecine-4,19(5H,18H)-dione]",86,34,38,49,77,62,40,9,63,0.25,49,6.1,5,91,36,17,53,
